Assay results from patent publication JP2019059697A, “置換された多環性ピリダジン誘導体およびそのプロドラッグ” (priority 2017, dated 2019).

Test system: influenza virus [インフルエンザウイルス]
Test: microbe, parasite or virus in culture
Format: cell-based
Conditions: unidentified influenza virus, 72 h, read-out: 50% influenza-infected cell death inhibition concentration (EC50)

Row | SMILES | EC50
1 | O=C1c2c(O)c(=O)cnn2N(C2c3ccccc3SCc3c2ccc(F)c3F)C2COCCN12 (single isomer, unassigned) [化合物I−1] | 18.2 nM
2 | CCN1CN(C2c3ccccc3CCc3ccccc32)n2ncc(=O)c(O)c2C1=O [化合物I−2] | 207 nM
